The values that follow come from ChEMBL document CHEMBL4340516, “Synthesis and antitumor activity of novel steroidal imidazolium salt derivatives” (Eur J Med Chem, 2019).

Common to all, as to assay type: functional, cell-based
For one assay, the system named is HL-60. Briefly: Antiproliferative activity against human HL60 cells assessed as reduction in cell viability incubated for 48 hrs by MTS assay. The note with it: HL-60, 48 h.
For a further assay, the system named is A549. Briefly: Antiproliferative activity against human A549 cells assessed as reduction in cell viability incubated for 48 hrs by MTS assay. The following applies: A549, 48 h.
The next assay has as its system MCF7. Briefly: Antiproliferative activity against human MCF7 cells assessed as reduction in cell viability incubated for 48 hrs by MTS assay. The following applies: MCF7, 48 h.
The next assay concerns SW480. The experiment in a line: Antiproliferative activity against human SW480 cells assessed as reduction in cell viability incubated for 48 hrs by MTS assay. The note with it: SW480, 48 h.
The test system of another assay is SMMC-7721. Briefly: Antiproliferative activity against human SMMC7721 cells assessed as reduction in cell viability incubated for 48 hrs by MTS assay. The following applies: SMMC-7721, 48 h.

SMILES strings stand for the structures. Some results are limits rather than exact numbers.

`CC(C)CCC[C@@H](C)[C@H]1CC[C@H]2[C@@H]3CC=C4C[C@@H](n5cc[n+](CC(=O)c6ccccc6)c5)CC[C@]4(C)[C@H]3CC[C@]12C`: the IC50 in the assay with HL-60 was found to be 7.73 µM; in the assay on A549, 8.1 µM; in the assay with MCF7, 8.84 µM; with SW480, 6.56 µM; with SMMC-7721, 1.42 µM.

In the case of `CC(C)CCC[C@@H](C)[C@H]1CC[C@H]2[C@@H]3CC=C4C[C@H](n5ccnc5)CC[C@]4(C)[C@H]3CC[C@]12C`, the IC50 in the assay on HL-60, with A549, in the assay with MCF7, in the assay on SW480 and in the assay on SMMC-7721 was over 20 µM in each case.

Consider `Cc1cc2c(cc1C)[n+](CC(=O)c1cccc(Br)c1)cn2[C@@H]1CC[C@@]2(C)C(=CC[C@H]3[C@@H]4C[C@@H]5O[C@]6(CC[C@@H](C)CO6)[C@@H](C)[C@@H]5[C@@]4(C)CC[C@@H]32)C1`, for which the half-inhibitory concentration (IC50) was 0.98 µM in the assay with HL-60; 7.15 µM with A549; 2.78 µM in the assay on MCF7; 2.22 µM with SW480; 1.39 µM in the assay on SMMC-7721.

With `CC(C)CCC[C@@H](C)[C@H]1CC[C@H]2[C@@H]3C[C@H](n4cc[n+](Cc5ccc6ccccc6c5)c4)[C@]45C[C@H]4CC[C@]5(C)[C@H]3CC[C@]12C`, the 50% inhibitory concentration (IC50) with HL-60 was determined as 1.64 µM; in the assay with A549, 7.67 µM; in the assay with MCF7, 8.04 µM; in the assay on SW480 it was 7.48 µM; in the assay on SMMC-7721 it was 1.04 µM.

Take `Cc1cc2c(cc1C)[n+](Cc1ccc3ccccc3c1)cn2[C@@H]1CC[C@@]2(C)C(=CC[C@H]3[C@@H]4C[C@@H]5O[C@]6(CC[C@@H](C)CO6)[C@@H](C)[C@@H]5[C@@]4(C)CC[C@@H]32)C1`: the IC50 was determined as 0.42 µM in the assay on HL-60; 5.12 µM with A549; 1.9 µM in the assay on MCF7; 1.6 µM in the assay with SW480; 0.59 µM in the assay on SMMC-7721.

For `C[C@]12CC[C@H]3[C@@H](CC=C4C[C@@H](O)CC[C@@]43C)[C@@H]1CC[C@@H]2n1cc[n+](Cc2ccccc2Br)c1`, the half-inhibitory concentration (IC50) in the assay with HL-60 was 6.3 µM; with A549, over 20 µM; in the assay with MCF7, 9.61 µM; in the assay with SW480, over 20 µM; with SMMC-7721, 7.63 µM.

As for `CC(C)CCC[C@@H](C)[C@H]1CC[C@H]2[C@@H]3C[C@H](n4cc[n+](CC(=O)c5ccc6ccccc6c5)c4)[C@]45C[C@H]4CC[C@]5(C)[C@H]3CC[C@]12C`, the IC50 in the assay on HL-60 came out at 2.41 µM; in the assay with A549, 8.53 µM; in the assay with MCF7, 8 µM; with SW480, 6.25 µM; with SMMC-7721, 1.23 µM.

On to `C[C@@H]1CC[C@@]2(OC1)O[C@H]1C[C@H]3[C@@H]4C[C@H](n5cc[n+](CC(=O)c6cccc(Br)c6)c5)[C@]56C[C@H]5CC[C@]6(C)[C@H]4CC[C@]3(C)[C@H]1[C@@H]2C`, for which the 50% inhibitory concentration (IC50) with HL-60 is 1.28 µM; in the assay on A549, 7.03 µM; in the assay with MCF7, 5.21 µM; in the assay with SW480, 6.46 µM; with SMMC-7721, 7.28 µM.

In the case of `CC(C)CCC[C@@H](C)[C@H]1CC[C@H]2[C@@H]3C[C@H](n4ccnc4)[C@]45C[C@H]4CC[C@]5(C)[C@H]3CC[C@]12C`, the IC50 in the assay with HL-60 was 2 µM; in the assay with A549, 11.7 µM; with MCF7 it was over 20 µM; in the assay on SW480, 16.4 µM; in the assay on SMMC-7721 it was 2.12 µM.

In the case of `C[C@@H]1CC[C@@]2(OC1)O[C@H]1C[C@H]3[C@@H]4CC=C5C[C@@H](O)CC[C@]5(C)[C@H]4CC[C@]3(C)[C@H]1[C@@H]2C` [DISOGENIN], the half-maximal inhibitory concentration (IC50) in the assay on HL-60, with A549, with MCF7, in the assay with SW480 and in the assay on SMMC-7721 was over 20 µM throughout.
